According to paper PMC10683027, “Discovery of tert-Butyl Ester Based 6-Diazo-5-oxo-L-norleucine Prodrugs for Enhanced Metabolic Stability and Tumor Delivery” (Journal of Medicinal Chemistry, 2023):
In brackets after ≈: the same amount, converted by molar mass. Like-named read-outs stand apart in the source and are kept apart here.

Experiments:
[1] = test system: P493B lymphoma cells suspended in human plasma; assay: Human tumor cell to plasma partitioning assay; format: cell-based; settings: 20 μM; 1 h; human plasma fraction
Procedure: Human tumor cell to plasma partitioning assays were conducted as we have previously described.[25] Briefly, P493B lymphoma cells were grown at 37 °C, in a humidified atmosphere with 5% CO2. Cell confluency was estimated, and cells were harvested after achieving >80% confluency and centrifuged at 200g for 5 min at 25 °C. The obtained cell pellet was resuspended in 20 mL of Dulbecco’s phosphate-buffered saline (DPBS; Gibco, USA, cat. no. 14-190-144) maintained at 37 °C, and cell count was determined using an automated cell counter (Bio-Rad, USA). Cell suspension in DPBS was further centrifuged at 200g for 5 min at 25 °C, and the cell pellet was resuspended in human plasma (Innovative Research, USA) for partitioning assessment. The final cell density after resuspending in plasma was 10 million cells/mL of plasma. Partitioning assessment was performed in triplicate. Preincubated (37 °C for 5 min) cell–plasma suspension was spiked with DRP-104 or P11 at a final concentration of 20 μM and incubated at 37 °C for 1 h. Following incubation, a 1 mL aliquot of cell–plasma suspension was centrifuged at 1000g for 5 min at 4 °C, and supernatant plasma as well as the cell pellet was collected and stored at −80 °C until bioanalysis. Both plasma and cell pellet fractions were analyzed for intact prodrug and DON levels. […]

[2] = set-up: method as in printed; settings: background statement; ref not given; cited from earlier work
[3] = Metabolic stability in mouse plasma; settings: for remaining at 1 h, 10 µM: CES1–/–, mouse, plasma; for Plasma: supplementary CSV, unit not given, matches Table 1 % remaining at 1 h, in %
[4] = Metabolic stability in mouse intestinal homogenate (GIh); settings: for remaining at 1 h, 10 µM: CES1–/–, mouse, intestinal homogenate; for Intestinal homogenate: supplementary CSV, unit not given, matches Table 1 % remaining at 1 h, in %
[5] = set-up: method as in PMID 36383674; settings: cited from earlier work
[6] = Chemical (aqueous) stability in buffer pH 7.4; format: physicochemical; settings: 10 μM, pH 7.4 PBS, 37 °C, 24 h, HRMS/LCMS
Procedure: (§1) The aqueous solubility was determined as previously reported with minor modifications.[48] Briefly, an excess amount of P11 or DRP-104 was added to PBS buffer (pH 7.4) and sonicated for 1 h at 37 °C to ensure saturation. After 1 h, the solution was filtered (0.45 μm PTFE), and the filtrate was diluted appropriately, and the concentration of each analyte was determined via LC–MS. Chemical stabilities of DRP-104 and P11 were done as previously described[18] with modifications. For chemical stability, prodrugs were spiked (10 μM) in buffer at pH 7.4 and incubated at 37 °C for 24 h. Prodrug disappearance was monitored using the developed HRMS methods.

[7] = Aqueous solubility assay in PBS buffer (pH 7.4); format: physicochemical; settings: PBS buffer pH 7.4; 37 °C; 1 h
Procedure: as §1

P493B lymphoma cells = assay: Cell viability assay; format: cell-based; settings: Homo sapiens, 72 h, 72 h incubation
Procedure: Cell proliferation assays were performed as we have previously described.[19] Briefly, P493B lymphoma cells were plated in 96-well plates at a density of 20 000 cells/well in a final volume of 100 μL of growth media. P11, or DRP-104, was added to cells in half-log serial dilutions with a final concentration of 0.2% DMSO. Cells were allowed to proliferate for 72 h, and thereafter, 20 μL of CellTiter 96 AQueous (Promega no. 3580) was added per well and incubated for 2 h. Absorbance was measured at 490 nm. Relative cell viability was calculated from the difference between untreated cell wells (100%) and media well without cells (0%).

in vitro [8] = settings: CES1–/–, mouse, tissue homogenate
Procedure: (§2) Briefly, intestinal tissue was homogenized over ice via probe sonication with 1:9 tissue to potassium phosphate buffer (0.1 M) conditions. Prodrugs were spiked in plasma or tissue homogenate at 10 μM final concentration with 0.2% DMSO v/v and incubated in triplicate for 0 and 60 min time points. At each time point, 100 μL of the sample was precipitated with 300 μL of methanol containing internal standard (IS; losartan, 0.5 μM). Precipitated samples were vortexed (30 s) and centrifuged at 10000g for 10 min at 4 °C. After centrifugation, 100 μL of supernatant was aliquoted and submitted for analysis. Prodrug disappearance over time was monitored by liquid chromatography–mass spectrometry (LC–MS) through peak area ratios between the analyte and internal standard.
(§3) Chromatographic analysis was performed on a Dionex ultra-high-performance LC system coupled with a Q Exactive Focus Orbitrap mass spectrometer (Thermo Fisher Scientific Inc., Waltham, MA). Separation was achieved using an Agilent Eclipse Plus column (100 × 2.1 mm i.d.; maintained at 35 °C) packed with a 1.8 μm C18 stationary phase. The mobile phase used was composed of 0.1% formic acid in acetonitrile and 0.1% formic acid in water with gradient elution, starting with 2.5% organic phase (from 0 to 0.25 min) and linearly increasing to 99% (from 0.25 to 1.25 min) and re-equilibrating to 2.5% by 4 min. The total run time for each analyte was 5 min. Pumps were operated at a flow rate of 0.4 mL/min. The mass spectrometer controlled by Xcalibur software 4.0.27.13 (Thermo Scientific) was operated with an HESI ion source in positive ionization mode for all compounds. Compounds were identified in the full-scan mode with m/z ranging from 75 to 1125.

in vitro [9] = settings: CES1–/–, mouse, plasma
Procedure: as §2, §3

[10] = CES1–/–, mouse, 1 h, 10 μM
Procedure: as §2, §3

[11] = CES1–/–, mouse, 1 h, 10 μM; remark: listed apart in the source
Procedure: as §2, §3

[12] = set-up: method as in PMID 13489662; settings: 2 weeks or more of DON therapy; cited from earlier work
hematologic malignancies = test system: hematologic malignancies; set-up: method as in PMID 13918321; settings: DON combination with standard 6-mercaptopurine (6-MP) therapy; cited from earlier work
[13] = Single time point pharmacokinetic screening, released DON in plasma and tumor of EL4 tumor-bearing mice; format: in vivo, C57BL/6/CES1–/– mice; settings: 1 mg/kg DON equivalent SC; 30 min
Procedure: C57BL/6/CES1^–/– mice were obtained as a gift from the United States Army Medical Research Institute of Chemical Defense, Maryland, USA; breeding was performed in the Johns Hopkins animal facility and was conducted according to protocols reviewed and approved by the Johns Hopkins Institutional Animal Care and Use Committee in compliance with the Association for Assessment and Accreditation of Laboratory Animal Care International (AAALAC) and the Public Health Service Policy on the Humane Care and Use of Laboratory Animals (PHS Policy). Male and female C57BL/6 mice (weighing between 25 and 30 g) 6–8 weeks of age were used for the study. The animals were maintained on a 12 h light–dark cycle with ad libitum access to food (certified laboratory food: Teklad 18% Protein Extruded Rodent Diet) and water. EL4 mouse lymphoma cells were obtained as a gift from the laboratory of Dr. Jonathan Powell (Johns Hopkins University, Baltimore, MD) and maintained in RPMI 1640 medium 1X (Corning, cat. no. 10-040-CV) with 10% (v/v) fetal bovine serum (Corning, cat. no. 35-011-CV), 1% (v/v) antimycotic/antibiotic (Corning, cat. no. 30-004-CI), 2 mM L-glutamine (Corning, cat. no. 25-005-CI), and 10 mM HEPES (Corning, cat. no. 25-060-CI) in a 5% (v/v) CO2 and 95% (v/v) air incubator prior to subcutaneous (SC) injection (1 × 10^6 cells in 0.2 mL of phosphate-buffered saline) on the flank of each mouse. […]

## CC(=O)N[C@@H](Cc1c[nH]c2ccccc12)C(=O)N[C@@H](CCC(=O)C=[N+]=[N-])C(=O)OC(C)C [DRP-104, isopropyl (S)-2-((S)-2-acetamido-3-(1H-indol-3-yl)-propanamido)-6-diazo-5-oxo-hexanoate, reference compound]
[1]
  stability and DON release in human plasma: stable in human plasma with no DON release
[2]
  aqueous solubility (intrinsic): < 1000 µg/mL
[3]
  remaining at 1 h, 10 µM: 94 ± 1%
  Plasma: 94 ± 1
[4]
  remaining at 1 h, 10 µM: 0%
  Intestinal homogenate: 0 ± 0
[5]
  fold greater delivery of DON to tumor versus GI tissues: 11
[6]
  chemical stability in buffer: remained intact without any degradation
[6]; listed as DRP 104
  chemical stability in buffer: no degradation
[7]
  solubility at 1 h: 240 ± 30 µg/mL (≈ 544 µM)
P493B lymphoma cells
  EC50: ~1000 nM

## CC(C)(C)OC(=O)[C@H](CCC(=O)C=[N+]=[N-])NC(=O)[C@H](Cc1c[nH]c2ccccc12)NC(=O)C12CCN(CC1)CC2 [Prodrug P8, tert-Butyl (S)-2-((S)-3-(1H-Indol-3-yl)-2-(quinuclidine-4-carboxamido)propanamido)-6-diazo-5-oxohexanoate]
In vitro [8]
  remaining at 1 h, 10 µM: 71%
In vitro [9]
  remaining at 1 h, 10 µM: 106 ± 2%
[10]
  Plasma: 106 ± 2
[11]
  Intestinal homogenate: 71 ± 0

## [N-]=[N+]=CC(=O)CC[C@H](N)C(=O)O [DON, 6-Diazo-5-oxo-L-norleucine]
[12]
  patients with disease stability or regression: 66%
Hematologic malignancies
  patients with complete bone marrow remissions: 42%

## CN(C)CC(=O)N[C@@H](CCc1ccccc1)C(=O)N[C@@H](CCC(=O)C=[N+]=[N-])C(=O)OC(C)(C)C [Prodrug P14, tert-Butyl (S)-6-Diazo-2-((S)-2-(2-(dimethylamino)acetamido)-4-phenylbutanamido)-5-oxohexanoate]
[3]
  remaining at 1 h, 10 µM: 102 ± 2%
  Plasma: 102 ± 2
[4]
  remaining at 1 h, 10 µM: 97 ± 3%
  Intestinal homogenate: 97 ± 3
[13]
  preferential DON tumor versus plasma delivery: maintained the preferential DON tumor versus plasma delivery
